{
  "source": "patent US7306804B2",
  "about": "(priority 1998, dated 2007)",
  "key": {"[1]": {"test_system": "anti-peptide antibodies in serum", "format": "binding, human", "parameters": "key to Anti-peptide antibody response: +, Positive (titer above control); −, Negative (titer below control)"}, "[2]": {"test_system": "anti-peptide antibodies in serum", "format": "binding, chimpanzee", "parameters": "key: +, Positive (Titer > 1:100); −, Negative (Titer < 1:100)"}, "[3]": {"test_system": "PBMCs from control and HIV-1 infected chimpanzees", "format": "cell-based, chimpanzee"}, "[4]": {"test_system": "PBMCs from normal and HIV-positive individuals", "format": "cell-based, human", "conditions": "for number of HIV+ individuals with positive proliferative responses: 17 HIV+ individuals tested"}},
  "note": "Like-named read-outs stand apart in the source and are kept apart here.",
  "data": [
    {"sequence": "STRTPEDSNSLGT [c-mos peptide, reference compound]", "values": [
      {"measurement": "Anti-peptide antibody response", "setting": "[1]; HIV-positive patient MSf", "value": "−"},
      {"measurement": "Anti-peptide antibody response", "setting": "[1]; HIV-positive patient MSm", "value": "−"},
      {"measurement": "Anti-peptide antibody response", "setting": "[1]; HIV-positive patient eight", "value": "−"},
      {"measurement": "Anti-peptide antibody response", "setting": "[1]; HIV-positive patient eleven", "value": "−"},
      {"measurement": "Anti-peptide antibody response", "setting": "[1]; HIV-positive patient fifteen", "value": "−"},
      {"measurement": "Anti-peptide antibody response", "setting": "[1]; HIV-positive patient five", "value": "−"},
      {"measurement": "Anti-peptide antibody response", "setting": "[1]; HIV-positive patient four", "value": "−"},
      {"measurement": "Anti-peptide antibody response", "setting": "[1]; HIV-positive patient fourteen", "value": "−"},
      {"measurement": "Anti-peptide antibody response", "setting": "[1]; HIV-positive patient nine", "value": "−"},
      {"measurement": "Anti-peptide antibody response", "setting": "[1]; HIV-positive patient one", "value": "−"},
      {"measurement": "Anti-peptide antibody response", "setting": "[1]; HIV-positive patient seven", "value": "−"},
      {"measurement": "Anti-peptide antibody response", "setting": "[1]; HIV-positive patient six", "value": "−"},
      {"measurement": "Anti-peptide antibody response", "setting": "[1]; HIV-positive patient ten", "value": "−"},
      {"measurement": "Anti-peptide antibody response", "setting": "[1]; HIV-positive patient thirteen", "value": "−"},
      {"measurement": "Anti-peptide antibody response", "setting": "[1]; HIV-positive patient three", "value": "−"},
      {"measurement": "Anti-peptide antibody response", "setting": "[1]; HIV-positive patient twelve", "value": "−"},
      {"measurement": "Anti-peptide antibody response", "setting": "[1]; HIV-positive patient two", "value": "−"},
      {"measurement": "Anti-peptide antibody response", "setting": "[1]; Normal-1 (HIV-seronegative)", "value": "−"},
      {"measurement": "Anti-peptide antibody response", "setting": "[1]; Normal-2 (HIV-seronegative)", "value": "−"},
      {"measurement": "Anti-peptide antibody response", "setting": "[2]", "value": "−"},
      {"measurement": "Anti-peptide antibody response", "setting": "[2]; chimpanzee 40, control normal", "value": "−"},
      {"measurement": "Anti-peptide antibody response", "setting": "[2]; chimpanzee 73, control normal", "value": "−"},
      {"measurement": "T-cell proliferative response", "setting": "[3]; chimpanzee 40, control normal", "value": "− (−, Negative (SI < 2.0))"},
      {"measurement": "T-cell proliferative response", "setting": "[3]; chimpanzee 62, HIV-infected", "value": "− (−, Negative (SI < 2.0))"},
      {"measurement": "T-cell proliferative response", "setting": "[3]; chimpanzee 69, HIV-infected", "value": "− (−, Negative (SI < 2.0))"},
      {"measurement": "T-cell proliferative response", "setting": "[3]; chimpanzee 73, control normal", "value": "− (−, Negative (SI < 2.0))"},
      {"measurement": "T-cell proliferative response", "setting": "[3]; chimpanzee 80, HIV-infected", "value": "− (−, Negative (SI < 2.0))"},
      {"measurement": "T-cell proliferative response", "setting": "[3]; chimpanzee 99, HIV-infected", "value": "− (−, Negative (SI < 2.0))"},
      {"measurement": "T-cell proliferative response", "setting": "[3]; chimpanzee 100, HIV-infected", "value": "− (−, Negative (SI < 2.0))"},
      {"measurement": "T-cell proliferative response", "setting": "[3]; chimpanzee 139, HIV-infected", "value": "− (−, Negative (SI < 2.0))"},
      {"measurement": "SI, background level of proliferation", "setting": "[3]; chimpanzee 175", "value": 2.7},
      {"measurement": "T-cell proliferative response", "setting": "[3]; chimpanzee 175, HIV-infected", "value": "+ (+, Positive (Stimulation Index [SI] > 2.0))"},
      {"measurement": "T-cell proliferative response", "setting": "[3]; chimpanzee 247, HIV-infected", "value": "− (−, Negative (SI < 2.0))"},
      {"measurement": "T-cell proliferative response", "setting": "[3]; chimpanzee 310, HIV-infected", "value": "− (−, Negative (SI < 2.0))"},
      {"measurement": "number of HIV+ individuals with positive proliferative responses", "setting": "[4]", "value": "None"},
      {"measurement": "number of HIV+ individuals with positive proliferative responses", "setting": "[4]; listed as control peptide", "value": "none"},
      {"measurement": "T-cell proliferative response", "setting": "[4]; HIV-positive patient MSf", "value": "− (−, Negative (SI < 2.0))"},
      {"measurement": "T-cell proliferative response", "setting": "[4]; HIV-positive patient MSm", "value": "− (−, Negative (SI < 2.0))"},
      {"measurement": "T-cell proliferative response", "setting": "[4]; HIV-positive patient eight", "value": "− (−, Negative (SI < 2.0))"},
      {"measurement": "T-cell proliferative response", "setting": "[4]; HIV-positive patient eleven", "value": "− (−, Negative (SI < 2.0))"},
      {"measurement": "T-cell proliferative response", "setting": "[4]; HIV-positive patient fifteen", "value": "− (−, Negative (SI < 2.0))"},
      {"measurement": "T-cell proliferative response", "setting": "[4]; HIV-positive patient five", "value": "− (−, Negative (SI < 2.0))"},
      {"measurement": "T-cell proliferative response", "setting": "[4]; HIV-positive patient four", "value": "− (−, Negative (SI < 2.0))"},
      {"measurement": "T-cell proliferative response", "setting": "[4]; HIV-positive patient fourteen", "value": "− (−, Negative (SI < 2.0))"},
      {"measurement": "T-cell proliferative response", "setting": "[4]; HIV-positive patient nine", "value": "− (−, Negative (SI < 2.0))"},
      {"measurement": "T-cell proliferative response", "setting": "[4]; HIV-positive patient one", "value": "− (−, Negative (SI < 2.0))"},
      {"measurement": "T-cell proliferative response", "setting": "[4]; HIV-positive patient seven", "value": "− (−, Negative (SI < 2.0))"},
      {"measurement": "T-cell proliferative response", "setting": "[4]; HIV-positive patient six", "value": "− (−, Negative (SI < 2.0))"},
      {"measurement": "T-cell proliferative response", "setting": "[4]; HIV-positive patient ten", "value": "− (−, Negative (SI < 2.0))"},
      {"measurement": "T-cell proliferative response", "setting": "[4]; HIV-positive patient thirteen", "value": "− (−, Negative (SI < 2.0))"},
      {"measurement": "T-cell proliferative response", "setting": "[4]; HIV-positive patient three", "value": "− (−, Negative (SI < 2.0))"},
      {"measurement": "T-cell proliferative response", "setting": "[4]; HIV-positive patient twelve", "value": "− (−, Negative (SI < 2.0))"},
      {"measurement": "T-cell proliferative response", "setting": "[4]; HIV-positive patient two", "value": "− (−, Negative (SI < 2.0))"},
      {"measurement": "T-cell proliferative response", "setting": "[4]; Normal-1 (HIV-seronegative)", "value": "− (−, Negative (SI < 2.0))"},
      {"measurement": "T-cell proliferative response", "setting": "[4]; Normal-2 (HIV-seronegative)", "value": "− (−, Negative (SI < 2.0))"}
    ]},
    {"sequence": "YLRDQQLLGIWG [Peptide 120]", "values": [
      {"measurement": "Anti-peptide antibody response", "setting": "[1]", "value": "− and +"},
      {"measurement": "number of HIV+ individuals with positive antibody titers (<1:1280)", "setting": "[1]", "value": "two"},
      {"measurement": "Anti-peptide antibody response", "setting": "[2]", "value": "−"},
      {"measurement": "T-cell proliferative response", "setting": "[3]; chimpanzee 40, control normal", "value": "− (−, Negative (SI < 2.0))"},
      {"measurement": "T-cell proliferative response", "setting": "[3]; chimpanzee 62, HIV-infected", "value": "+ (+, Positive (Stimulation Index [SI] > 2.0))"},
      {"measurement": "T-cell proliferative response", "setting": "[3]; chimpanzee 69, HIV-infected", "value": "+ (+, Positive (Stimulation Index [SI] > 2.0))"},
      {"measurement": "T-cell proliferative response", "setting": "[3]; chimpanzee 73, control normal", "value": "− (−, Negative (SI < 2.0))"},
      {"measurement": "T-cell proliferative response", "setting": "[3]; chimpanzee 80, HIV-infected", "value": "+ (+, Positive (Stimulation Index [SI] > 2.0))"},
      {"measurement": "T-cell proliferative response", "setting": "[3]; chimpanzee 99, HIV-infected", "value": "− (−, Negative (SI < 2.0))"},
      {"measurement": "T-cell proliferative response", "setting": "[3]; chimpanzee 100, HIV-infected", "value": "+ (+, Positive (Stimulation Index [SI] > 2.0))"},
      {"measurement": "T-cell proliferative response", "setting": "[3]; chimpanzee 139, HIV-infected", "value": "− (−, Negative (SI < 2.0))"},
      {"measurement": "T-cell proliferative response", "setting": "[3]; chimpanzee 175, HIV-infected", "value": "− (−, Negative (SI < 2.0))"},
      {"measurement": "T-cell proliferative response", "setting": "[3]; chimpanzee 247, HIV-infected", "value": "− (−, Negative (SI < 2.0))"},
      {"measurement": "T-cell proliferative response", "setting": "[3]; chimpanzee 310, HIV-infected", "value": "− (−, Negative (SI < 2.0))"},
      {"measurement": "number of HIV+ individuals with positive proliferative responses", "setting": "[4]", "value": "five"},
      {"measurement": "T-cell proliferative response", "setting": "[4]; HIV-positive patient MSf", "value": "− (−, Negative (SI < 2.0))"},
      {"measurement": "T-cell proliferative response", "setting": "[4]; HIV-positive patient MSm", "value": "− (−, Negative (SI < 2.0))"},
      {"measurement": "T-cell proliferative response", "setting": "[4]; HIV-positive patient eight", "value": "− (−, Negative (SI < 2.0))"},
      {"measurement": "T-cell proliferative response", "setting": "[4]; HIV-positive patient eleven", "value": "+ (+, Positive (Stimulation Index [SI] > 2.0))"},
      {"measurement": "T-cell proliferative response", "setting": "[4]; HIV-positive patient fifteen", "value": "+ (+, Positive (Stimulation Index [SI] > 2.0))"},
      {"measurement": "T-cell proliferative response", "setting": "[4]; HIV-positive patient five", "value": "− (−, Negative (SI < 2.0))"},
      {"measurement": "T-cell proliferative response", "setting": "[4]; HIV-positive patient four", "value": "− (−, Negative (SI < 2.0))"},
      {"measurement": "T-cell proliferative response", "setting": "[4]; HIV-positive patient fourteen", "value": "− (−, Negative (SI < 2.0))"},
      {"measurement": "T-cell proliferative response", "setting": "[4]; HIV-positive patient nine", "value": "+ (+, Positive (Stimulation Index [SI] > 2.0))"},
      {"measurement": "T-cell proliferative response", "setting": "[4]; HIV-positive patient one", "value": "− (−, Negative (SI < 2.0))"},
      {"measurement": "T-cell proliferative response", "setting": "[4]; HIV-positive patient seven", "value": "+ (+, Positive (Stimulation Index [SI] > 2.0))"},
      {"measurement": "T-cell proliferative response", "setting": "[4]; HIV-positive patient six", "value": "+ (+, Positive (Stimulation Index [SI] > 2.0))"},
      {"measurement": "T-cell proliferative response", "setting": "[4]; HIV-positive patient ten", "value": "− (−, Negative (SI < 2.0))"},
      {"measurement": "T-cell proliferative response", "setting": "[4]; HIV-positive patient thirteen", "value": "− (−, Negative (SI < 2.0))"},
      {"measurement": "T-cell proliferative response", "setting": "[4]; HIV-positive patient three", "value": "− (−, Negative (SI < 2.0))"},
      {"measurement": "T-cell proliferative response", "setting": "[4]; HIV-positive patient twelve", "value": "− (−, Negative (SI < 2.0))"},
      {"measurement": "T-cell proliferative response", "setting": "[4]; HIV-positive patient two", "value": "− (−, Negative (SI < 2.0))"},
      {"measurement": "T-cell proliferative response", "setting": "[4]; Normal-1 (HIV-seronegative)", "value": "− (−, Negative (SI < 2.0))"},
      {"measurement": "T-cell proliferative response", "setting": "[4]; Normal-2 (HIV-seronegative)", "value": "− (−, Negative (SI < 2.0))"}
    ]}
  ]
}
